Series [1] concerns Cynomolgus monkeys. In words: Intraocular pressure after periorbital roller-ball application in Cynomolgus monkeys. It is filed as in vivo, Cynomolgus monkey. Set-up: Ocular Pressure (Left Eye), Mean: unit not given beside the values. The settings on record: for Ocular Pressure (Left Eye), Mean: treated left eye, n=6. As to the method:
Day 1; 8 Cynomolgus monkeys, which are the favored animal model for glaucoma studies, were assigned to the study. Intraocular pressure was measured in both eyes. The 6 animals with the highest intraocular pressure were selected for study.
(§1) Day 2 Intraocular pressure was measured in both eyes of the 6 selected animals. Before dosing the monkeys, the delivery of vehicle (Polyethylene glycol 400) and the compound (3-[(3′-fluoro-4-fluorobiphenyl-3-carbonyl) amino] phenoxyacetic acid isopropyl ester from the roller-ball applicator bottle was checked by rolling it along a solid surface (e.g. glass or plastic) until the liquid flowed freely from the roller-ball. The formulation of (3-[(3′-fluoro-4-fluorobiphenyl-3-carbonyl) amino] phenoxyacetic acid isopropyl ester was applied immediately afterwards by rolling the roller-ball slowly around the skin surrounding the left eye socket of each monkey. The roller-ball was rolled around this area 5 times for each monkey. The same drug application procedure was performed for the vehicle (Polyethylene glycol 400) to the right eye socket of each monkey. Intraocular pressure was measured in both eyes at 3 hours post-drug and vehicle application and again at 5 hours post-drug and vehicle application. The conjunctivae of both eyes were checked for redness at the end of the daily experimental period.
Day 3; Repeat the operation of Day 2.
Day 4; Repeat the operation of Day 2.
Day 5; Repeat the operation of Day 2.
Days 6 and 7, no drug administered.
(§2) Day 8; Intraocular pressure was measured in both eyes and the conjunctivae were checked for redness/hyperemia.
(§3) Day 15; Intraocular pressure in was measured in both eyes and the conjunctivae were checked for redness/hyperemia.
This is very unusual as most IOP lowering drugs are administered daily in order to continuously lower IOP.

For series [2], the system named is Cynomolgus monkeys. In words: Ocular surface hyperemia assessment (conjunctival congestion) in Cynomolgus monkeys. It counts as in vivo, Cynomolgus monkey. Set-up: key to Conjunctival Congestion, hyperemia score: 0: Normal Appearance; 0.5: Very Slight Redness or Dilation of Conjunctival Vessels; 1: More Obvious Redness or Dilation of Conjunctival Vessels; 2: Whole Conjunctiva Exhibiting Pronounced Red Coloration. Visual Clarification of Individual Conjunctival Vessels Difficult.; 3: Whole Conjunctiva Exhibiting Pronounced Red Coloration. Visual Clarification of Individual Iridial Vessels Impossible. Accompany Conjunctival Edema. The settings on record: for Conjunctival Congestion, hyperemia score: left eyes, one value per animal. As to the method:
as §1, §2, §3

The test system of series [3] is patient. The experiment in a line: Periorbital application in a patient with bacterial conjunctivitis (patient example). It is filed as in vivo, human. The settings on record: Example VIII: 0.3% w/w cream (Composition 3, Table II), periorbital skin of the right eye daily. An excerpt:
A pediatric patient suffers from bacterial conjunctivitis in their right eye.

In series [4] the test system is patient. In words: Periorbital application for ocular pain/inflammation after cataract surgery (patient example). It counts as in vivo, human. The settings on record: Example IX: 0.1% w/v solution (formula 5, table 1) once a day for five days, periorbital skin of both eyes. An excerpt: A person is suffering from ocular/pain inflammation after cataract surgery.

Where “and” joins values, the source holds several entries; their conditions need not be identical. Identical values can stand only once.

On to `CC(C)OC(=O)COc1cccc(NC(=O)c2cc(-c3cccc(F)c3)ccc2F)c1` [3-[(3′-fluoro-4-fluorobiphenyl-3-carbonyl)amino] phenoxyacetic acid isopropyl ester], for which the “reductions in intraocular pressure (Table III and FIG. 2)” value with Cynomolgus monkeys [1] (Cynomolgus monkeys, periorbital application, versus normal baseline) is given as “Statistically significant reductions”. The “Ocular Pressure (Left Eye), Mean” value with Cynomolgus monkeys [1] (Day 2-3 hr post, in Polyethylene glycol 400, dosed Days 2-5, baseline Day 1 17.8 / 18.3) was determined as 18.0; in the series with Cynomolgus monkeys [1] (Day 2-5 hr post, baseline Day 1 17.8 / 18.3), 17.8; with Cynomolgus monkeys [1] (Day 3-3 hr post), 12.2; in the series on Cynomolgus monkeys [1] (Day 3-5 hr post), 12.3; in the series on Cynomolgus monkeys [1] (Day 4-3 hr post), 10.9; with Cynomolgus monkeys [1] (Day 4-5 hr post), 10.6. In addition, the “Ocular Pressure (Left Eye), Mean” value is recorded as 8.4 in the series on Cynomolgus monkeys [1] (Day 5-3 hr post); 9.1 in the series with Cynomolgus monkeys [1] (Day 5-5 hr post); 8.5 with Cynomolgus monkeys [1] (Day 8-8:00am, no drug after Day 5); 17.4 in the series with Cynomolgus monkeys [1] (Day 15-8:00, no drug after Day 5). Also, the “IOP lowering (FIG. 2)” value with Cynomolgus monkeys [1] (after five doses) was “long term IOP lowering”. In addition, the “duration of IOP lowering” value with Cynomolgus monkeys [1] (periorbital skin, single administration and/or after a series of single administrations) is reported as 7 to 14 days. In addition, the “Conjunctival Congestion, hyperemia score” value is on record as 0 in the series on Cynomolgus monkeys [2] (150407 (12:00) (Day 2, 3 hr post)); 0 in the series with Cynomolgus monkeys [2] (150407 (14:00) (Day 2, 5 hr post)); 0 in the series with Cynomolgus monkeys [2] (150408 (12:00) (Day 3, 3 hr post)); 0 in the series with Cynomolgus monkeys [2] (150408 (14:00) (Day 3, 5 hr post)); 0 in the series on Cynomolgus monkeys [2] (150409 (12:00) (Day 4, 3 hr post)); 0 in the series with Cynomolgus monkeys [2] (150409 (14:00) (Day 4, 5 hr post)). The “Conjunctival Congestion, hyperemia score” value with Cynomolgus monkeys [2] (150410 (12:00) (Day 5, 3 hr post)) is 0; with Cynomolgus monkeys [2] (150410 (14:00) (Day 5, 5 hr post)), 0; in the series on Cynomolgus monkeys [2] (150413 (8:00) (Day 8)) it was 0.6 and 0 (4×) and 0.5; in the series with Cynomolgus monkeys [2] (150420 (8:00) (Day 15)), 0. In addition, the “surface hyperemia (summary of Table IV)” value with Cynomolgus monkeys [2] (Cynomolgus monkeys, exception: very slight redness on Day 7 in two monkeys) is listed as “almost no surface hyperemia”.

As for `O=C(O)c1cn(C2CC2)c2cc(N3CCNCC3)c(F)cc2c1=O` [ciprofloxacin], the bacterial conjunctivitis entry in the series on patient [3] is on record as “bacterial infection disappears”.

For the compound `C[C@]12C=CC(=O)C=C1CC[C@@H]1[C@@H]2[C@@H](O)C[C@@]2(C)[C@H]1CC[C@]2(O)C(=O)CO` [prednisolone], the “ocular pain and inflammation after cataract surgery” value in the series with patient [4] is “reduces the pain and inflammation”.

These data come from patent publication US9820954B2, “Quantitative peri-orbital application of ophthalmology drugs” (JENIVISION INC., priority 2015, dated 2017).
